# Measurements reported in US7524811B2, “Anti-angiogenic peptides from the N-terminus of endostatin” (Children's Medical Center Corporation, priority 2003, dated 2009).
# Values joined by “and” are separate entries in the source; they are usually repeats but may differ in a detail not shown here. Equal values may be shown once. “Also recorded” adds a separate entry of the source. No end group written: not given here.
# B1: human endostatin (EntreMed): recombinant human endostatin, gift from EntreMed Corporation (protein, UniProt P39060 1572-1754, looked up)
# Endostatin: HSHRDFQPVLHLVALNSPLSGGMRGIRGADFQCFQQARAVGLAGTFRAFLSSRLQDLYSIVRRADRAAVPIVNLKDELLFPSWEALFSGSEGPLKPGARIFSFDGKDVLRHPTWPQKSVWHGSDPNGRRLTESYCETWRTEAPSATGQASSLLGGRLLGQSAASCHHAYIVLCIENSFMTASK
# modifications: Endostatin
# notes: recombinant human endostatin, gift from EntreMed Corporation
# Columns and labels:
# [1] = system: LLC tumors; experiment: Lewis lung carcinoma (LLC) tumor model, systemic s.c. treatment; assay type: in vivo, C57B1/6J mice; conditions: peptide s.c. twice a day, 2.8 mg/kg/d, vs PBS
# Method: The murine LLC tumor model (O'Reilly et al. (1994) Cell, 79: 315-328) was used to further characterize these peptides because this tumor grows more rapidly than BxPC-3 cells, allowing for shorter treatment periods. Murine analogs of the endostatin peptides were synthesized. The only difference between the human and murine peptides was that murine P1 peptide contained 27 amino acids instead of 25 amino acids for human P1.
# Control mice were treated with PBS. In these experiments, LLC cells were implanted into the s.c. dorsa of C57B1/6J mice, and systemically treated. Peptides (mP1, mP2, mP5, and mP6) were injected (s.c.) twice a day at a dose of 2.8 mg/kg/d, whereas endostatin and PBS were administered once a day at a dose of 20 mg/kg/d.
# (§1) BxPC-3 and LLC cells were grown in cell culture as described above. […] Mice were shaved and the dorsal skin was cleaned with ethanol before tumor cell injection. A suspension of 5×10^6 tumor cells in 0.1 ml RPMI-1640 (for BxPC-3) or DMEM (for LLC) was injected subcutaneously (s.c.) into the dorsa of mice at the proximal midline. BxPC-3 cells were implanted in SCID mice and LLC in C57B1/6J mice.
# Animals with Lewis Lung carcinoma (600-800 mm^3 tumors) were euthanized, and the skin overlying the tumor was cleaned with Betadine and ethanol. Tumor tissue was excised under aseptic conditions. A suspension of tumor cells in 0.9% normal saline was made by passage of viable tumor tissue through a sieve and a series of sequentially smaller hypodermic needles of diameter 22- to 30-gauge. The final concentration was adjusted to 1×10^7 cells/ml, and the suspension was placed on ice. The injection of tumor cells was performed as described above.
# The mice were weighed and tumors were measured every 3-5 days in two diameters with a dial-caliper. Volumes were determined using the formula a^2×b×0.52 (where a is the shortest and b is the longest diameter). Data is represented as volume of treated tumor over control (T/C). At the completion of each experiment, the mice were euthanized with CO2 asphyxiation. Tumors were fixed in 10% buffered Formalin (Fisher Scientific, Fair Lawn, N.J.) and paraffin-embedded.
# For treatment of tumor-bearing mice, tumor volumes were allowed to grow to approximately 100 mm^3, and mice were randomized. Treatment was performed by single bolus s.c. injections. Peptides were administered twice a day (every 12 hrs). Doses indicated for peptides were corrected for the purity of peptides (approximately 70%). For example, mice injected with 4 mg/kg/d peptide, were actually injected with 2.8 mg/kg/d after correction. The unpaired Student t-test was used for statistical analysis.
# [2] = system: human microvascular endothelial cells (HMVECs); experiment: VEGF-induced endothelial cell migration, modified Boyden chamber; assay type: cell-based; conditions: VEGF 5 ng/ml; for concentration at which VEGF-induced EC migration was inhibited: 25 ng/ml peptide equimolar to 200 ng/ml endostatin
# Method: Endostatin peptides were tested for anti-endothelial cell migration activity. Inhibition of VEGF-induced migration of human microvascular endothelial cells (HMVECs) was determined using several doses of endostatin peptides (FIG. 5). Human peptides were used because the cells were of human origin and the migration response of the HMVECs was assayed using a modified Boyden chamber. VEGF (5 ng/ml) was used a chemotactic agent and cells were challenged with human endostatin (Entremed; EM-ES), human Fc-Endostatin (nFcES), human P1 (hP1), human P2 (hP2), human P6 (hP6), and human P1-H1/3A (hP1-H1/3A). Total migration per membrane was quantified from the capture images using Scion Image Software (National Institutes of Health) and the unpaired Student T test was used for statistical analysis.
# The motility response of HMVEC-d cells was assayed using a modified Boyden chamber. Cells were plated in T75-cm2 flasks at 0.5×10^6 cells per flask and allowed to grow for 48 h (˜70% confluent) prior to the migration assay. To facilitate cell adhesion, the upper membrane of a transwell ([…]; Costar) was coated with fibronectin ([…]; Becton Dickinson, Bedford, Mass.) for 1 h at 37° C. Coated membranes were rinsed with PBS and allowed to air dry immediately before use. Cells were detached by trypsinization, treated with trypsinization neutralization solution (Clonetics), and resuspended at a final concentration of 1×10^6 cells/ml in serum-free endothelial basal medium (EBM; Clonetics) containing 0.1% BSA. Cells (200,000 in 0.2 ml) were then treated with 0.2 ml of EBM/BSA containing endostatin or peptides at the indicated concentrations. Cells were incubated for 20 min. at 37° C. with occasional shaking. Cells (50,000 in 100 μl) were added to the upper chamber of the transwell. EBM or EBM supplemented with VEGF (5 ng/ml) was added to the lower chamber and cells were allowed to migrate toward the bottom chamber for 4 h in a humidified incubator containing 5% CO2. Transwell filters were rinsed once with PBS and fixed and stained using a Diff-Quik staining kit (Baxter) following the manufacturer's protocol. Non-migrated cells were removed from the upper chamber with a cotton swab. Stained filters were cut out of the chamber and mounted onto slides using Permount (Fisher). The number of migrated cells was measured using microscopy (three fields from each membrane were captured using a 40x objective), and images were captured with a CCD camera using SPOT software. Total migration per membrane was quantified from the captured images using Scion Image software (National Institutes of Health). All experiments were run in triplicate. The unpaired Student t-test was used for statistical analysis.
# [3] = system: human pancreatic tumor cells BxPC-3; experiment: BxPC-3 tumor model, systemic s.c. treatment; assay type: in vivo, SCID mice; conditions: peptide s.c. twice a day, 7 mg/kg/d; for inhibition of BxPC-3 tumor: final measurement at 28 days, n=3, vs PBS
# Method: These peptides were initially tested for anti-tumor activity employing the human pancreatic tumor cells BxPC-3 cells, which were implanted in the s.c. dorsa of SCID mice. For systemic treatment, human endostatin peptides, P1-P8, were administered subcutaneously (s.c.) twice a day at 7 mg/kg/d due to the high clearance rate from the mouse circulation. Full-length Fc-Endostatin, hFcES was administered subcutaneously only once per day at a dose of 20 mg/kg/d. PBS was used as a control.
# Human BxPC-3 pancreatic adenocarcinoma and Lewis lung carcinoma (LLC) cells were grown and maintained as described earlier (Kisker et al. (2001) Cancer Res, 61:7669-7674; O'Reilly et al. (1994) Cell, 79: 315-328). For BxPC-3 tumor cell injection, cells were grown in 900-cm2 roller bottles. Human microvascular endothelial cells (HMVEC-d; Clonetics, Walkersville, Md.) were cultured in microvascular endothelial cell growth medium (EGM-2 MV; Clonetics) and maintained at 5% CO2 in a 37° C. humidified incubator. Recombinant human endostatin was a generous gift from EntreMed Corporation (Rockville, Md.) and recombinant human and murine FcEndostatin were prepared as described earlier (Bergers et al. (1999) Science, 284: 808-812). Human and murine endostatin peptides were synthesized by SynPep Corporation (Dublin, Calif.). Peptides were resuspended in PBS or 50 mM Tris, 150 mM NaCl, pH 7.5. PECAM, purified rat anti-mouse CD31, was obtained from BD Pharmingen (San Diego, Calif.) and human recombinant VEGF was obtained from the NIH (Bethesda, Md.).
# as §1, with “BxPC-3 cells were implanted in SCID mice and LLC in C57B1/6J mice.” left out
# The mice were weighed and tumors were measured every 3-5 days in two diameters with a dial-caliper. Volumes were determined using the formula a^2×b×0.52 (where a is the shortest and b is the longest diameter). […]
# [4] = Water solubility of peptides; assay type: physicochemical; conditions: high concentrations, read-out: concentration at which not water soluble
# Method: Peptides were approximately 1/7th-1/8th the size of full length endostatin. Three cysteines, 33,165,173, were replaced by alanines (underlined in Table 1), and cysteinel35 was omitted, to prevent the formation of disulfide bonds. Two additional lysines were added at the C-terminal of hP8 to increase its solubility (double underlined). Most peptides were water soluble, except for hP2 at high concentrations (>2.5 mg/ml). Also, all peptides were approximately 70% pure. However, no difference in tumor inhibition was observed when peptides of more than 95% purity were used.
# [5] = system: LLC tumors; experiment: Lewis lung carcinoma (LLC) tumor model, systemic s.c. treatment; assay type: in vivo, C57B1/6J mice; conditions: peptide at 14 mg/kg/d
# [6] = system: vessel density (CD31) of LLC tumors; experiment: Vessel density (CD31 staining) of LLC tumor sections; assay type: in vivo, C57B1/6J mice; conditions: peptide 2.8 mg/kg/d s.c. twice a day
# Method: To determine the effect on angiogenesis after mP1 treatment, LLC tumors treated with mP1, mP2, and endostatin at equimolar concentration were analyzed for vessel density (CD31). […] In each case, peptides were administered twice a day s.c. and LLC tumor sections from day 13 were formalin-fixed paraffin-embedded and then stained with CD31 (PECAM). FIG. 2C show the determination of vessel density and the Y axis is expressed as % CD31/high power field (hpf).
# To determine if Zn binding is also important for the anti-tumor property of endostatin, mP1 and mP1-H1/3A were tested using the LLC tumor model. Peptides were administered twice a day (s.c.) at a dose of 2.8 mg/kg/d. Peptide mPl inhibited LLC by 42% (p =0.031), whereas mPl-H1/3A had no effect (FIG. 3C). To determine if there was a difference in angiogenesis, vessel density (CD31) of LLC tumors was analyzed after mP1 and mP1-H1/3A treatment. […] The unpaired Student t test was used for statistical analysis.
# Tumors were fixed in 10% buffered Formalin overnight at 4° C. The next day, tumors were washed three times in PBS and paraffin-embedded. Sections (5 μm) were permeabilized with 40 μg/ml proteinase K (Roche Diagnostics Corp.) in 0.2 M Tris-HCl buffer (pH 7.6) for 25 minutes at 37° C. and washed with PBS. PECAM (1:250) was incubated at 4° C. overnight. […] Vessel density (average of three fields) was determined by IPLab software. […]
molecule,measurement,setting,value
HTHQDFQPVLHLVAL [mP1-15],anti-tumor effect on LLC,[1],inhibit tumor volume
HPTWPQKSVWHGSDPNGRRLTESY [hP6],concentration at which VEGF-induced EC migration was inhibited,[2],100 ng/mL and 200 ng/mL
same,inhibition of EC migration,[2]; concentrations lower than 100 ng/ml,no inhibition
same,inhibition of EC migration,[2]; several doses,inhibited EC migration but at higher concentrations than hPl
ATAQDFQPVLHLVALNTPLSGGMRGIR [mP1-H1/3A],anti-tumor effect on LLC,[1]; 2.8 mg/kg/day,no effect; also recorded: essentially not affected
HTHQDFQPVLHLVALNTPLS [mP1-20],anti-tumor effect on LLC,[1],inhibit tumor volume
GSEGPLKPGARIFSFDGKDVLRHPT [hP5],inhibition of BxPC-3 tumor,[3],29%
HPAWPQKSVWHGSDPSGRRLMESY [mP6],anti-tumor effect on LLC,[1],No or insignificant activity
TFRAFLSSRLQDLYSIVRRADRAAV [hP3],anti-tumor effect on BxPC-3,[3]; 28 days,failed to inhibit tumor growth
MRGIRGADFQAFQQARAVGLAGTFR [hP2],solubility,[4],> 2500 µg/mL
HTHQDFQPVLHLVALNTPLSGGMRGIR [mP1],inhibition of LLC tumor,[1]; 2.8 mg/kg/day,44% and 42%
same,inhibition of LLC tumor formation,[5],inhibited LLC tumor formation less than at 2.8 mg/kg/d
HSHRDFQPVLHLVALNSPLSGGMRG [hP1],inhibition of BxPC-3 tumor,[3],39%
same,concentration at which VEGF-induced EC migration was inhibited,[2],25 ng/mL
same,inhibition of EC migration,[2]; at 500 ng/ml,no inhibition
same,inhibition of EC migration,[2]; several doses,more potent in inhibiting EC migration than full-length endostatin
GSQGQVQPGARIFSFDGRDVLRHPA [mP5],anti-tumor effect on LLC,[1],No or insignificant activity
MRGIRGA DFQAFQQARA VGLSGTFR (MRGIRGADFQAFQQARAVGLSGTFR) [mP2],effect on vessel density (CD31),[6],no effect
same,anti-tumor effect on LLC,[1],No or insignificant activity
same,inhibition of LLC tumor formation,[5],could inhibit LLC tumor formation as well as mP1 at 2.8 mg/kg/d
B1,concentration at which VEGF-induced EC migration was inhibited,[2],200 ng/mL
same,concentration of best (slightly better) inhibition of EC migration,[2]; U-shaped response,200 ng/mL
same,inhibition of EC migration,[2]; at 100 ng/ml,not at 100 ng/ml
